Key:
ABL1 = molecular target: T1, ABL1 (Homo sapiens, UniProt P00519); test: Luminescence-based ABL kinase assay (300 μM ATP), ADP-Glo; assay type: biochemical
T1 construct: purchased Carna Biosciences
Text: Compounds were serially diluted in DMSO. […] Luminescence signal positively correlates with kinase activity.

ABL1 (T315I) = ABL1 (T315I) (Homo sapiens, UniProt P00519, T315I); test: as above; assay type: biochemical
Procedure: Kinase activity of ABL1 was measured using the ADP-Glo system (Promega), which measures formation of ADP using a luminescence-based method. Compounds were serially diluted in DMSO. 20 nL of compound or DMSO only (high control, HC) were added to a 384-well plate (OptiPlate-384. PerkinElmer) using an Echo550 liquid handler (Labcyte). 15 μL of kinase solution (10 mM MgCl2, 0.01% Brij-35, 2 mM DTT, 0.05% BSA, 1 mM EGTA, 50 mM HEPES pH 7.5, and 3.325 nM ABL1 [Carna Biosciences]) were added to each well of the 384-well plate containing the compounds. No enzyme control wells were included (low control, LC). The plate was incubated at room temperature for 30 minutes. 5 μL of a second solution containing 10 mM MgCl2, 0.01% Brij-35, 2 mM DTT, 0.05% BSA, 1 mM EGTA, 50 mM HEPES pH 7.5, 6 μM Peptide 2 (Perkin Elmer, Cat No 760346), and 1.2 mM ATP were added to each well to start the kinase reaction. The plate was incubated for 90 minutes at room temperature. 20 μL of ADP-Glo reagent (Promega) were then added to each well and the plate was incubated for 40 minutes at room temperature. 40 μL of kinase detection reagent (Promega) was added to each well and the plate was incubated for an additional 45 minutes at room temperature. During this step, ADP was converted to ATP, a substrate for luciferase, to produce luminescence signal. Luminescence was measured on an Envision plate reader (Perkin Elmer). Luminescence signal positively correlates with kinase activity. The percent kinase activity was calculated as follows: percent kinase activity=100×(Lumsample−LumLC)/(LumHC−LumLC). As noted above, DMSO only and no enzyme wells were used as high and low controls, respectively. IC50 values were calculated using the XLFit software.

pCRKL in K562 cells = test: pCRKL ELISA assay in K562 cells; assay type: cell-based; details: Homo sapiens, 1.5 h, 90 minutes incubation, read-out: pCRKL ELISA, Cell Line IC50 (nM) K562
Procedure: K562 or Ba/F3 ABL T315I cells (2.0*10^5 cells/100 μl/well) were seeded in 96 well (Corning, cat #3799). Compounds were dissolved in DMSO, serially diluted in DMSO and then were added, mixed, and incubated for 90 minutes at 37° C., 5% CO2. Following the 90-minute incubation, plates were centrifuged for 5 min at 3000 RPM and supernatant was removed from each well. Cells were washed 3 times with 150 μl PBS prior to addition of 100 μl cell RIPA lysis buffer (Boston BioProducts, cat #BP-115D) supplied with 1× complete ULTRA cocktail inhibitor (Roche, 05892791001) and 1× PhosSTOP Phosphatase Inhibitor Cocktail Tablets (Roche, 04906837001). Cells were incubated with lysis buffer for 1 hour at 4° C. prior to storage at −80C.
A capture antibody able to detect phosphorylated and non-phosphorylated CRKL (R&D Systems, cat #AF5127) was added to Meso Scale Discovery (MSD) standard bind plates (MSD, cat #L15XA-3) at 5 ug/mL and incubated at 4° C. overnight. The next day, plates were washed with PBS+ 0.05% Tween20 (PBST) and 150 μl of 5% BSA blocking solution was added for 1 hour at room temperature with shaking. Plates were washed with PBST. Lysates were thawed and 30 μl of lysate was added to the MSD plates and incubated for 2 hours at room temperature with shaking. MSD plates were washed with PBST and 30 μl of a detection antibody that binds phosphorylated pCRKL (R&D Systems, cat #MAB6910) was added at 1 ug/mL to each well. Plates were incubated for 1 hour at room temperature with shaking. Plates were washed with PBST prior to addition of 30 μl of a sulfo tagged goat anti mouse detection antibody (MSD cat #R32AC-1). Plates were incubated for 1 hour at room temperature with shaking. Plates were washed with PBST prior to addition of 150 ul of 1×MSD read buffer T (MSD, cat #R92TC-2). Electrochemiluminescence (ECLU) was read on an MSD plate reader (Meso Scale Discovery). The remaining activity by calculated as follows: % Relative activity=100× (ELCUsample−ECLULC)/(ECLUHC−ECLULC). The low and high controls (LC/HC) are generated from lysate from wells without cells or with cells treated with 0.1% DMSO, respectively. IC50 values were calculated using XLFit software using a nonlinear regression model with a sigmoidal dose response and are shown in Table 4 and Table 5 below.

K562 cells = test: K562 cell proliferation assay (CellTiter-Glo); assay type: cell-based; details: Homo sapiens, K562 cell viability, 72 hours, read-out: Cell Line (IC50, nM) K562
HL60 cells = test: HL60 cell proliferation assay (CellTiter-Glo); assay type: cell-based; details: Homo sapiens, HL-60, HL60 cell viability, 72 hours, read-out: Cell Line (IC50, nM) HL60

SMILES	IC50 (ABL1)	IC50 (ABL1 (T315I))	IC50 (pCRKL in K562 cells)	IC50 (K562 cells)	IC50 (HL60 cells)
[2H]C([2H])([2H])Oc1ncccc1-c1cc2cc(NC(=O)[C@@H]3C[C@@H]3F)ncc2n1C [Compound 32, (1S,2S)-2-fluoro-N-(2-(2-(methoxy-d3)pyridin-3-yl)-1-methyl-1H-pyrrolo[2,3-c]pyridin-5-yl)cyclopropane-1-carboxamide]	28.6 nM	83.1 nM	189 nM	182 nM	5120 nM
COc1ccnc(OC)c1-c1cc2cc(NC(=O)[C@H]3C[C@@H]3CN3CCNCC3)ncc2n1C (single isomer, unassigned) [Compound 138]	12.8 nM	24.4 nM	254 nM		
CCc1ncccc1-c1cc2cc(NC(=O)[C@@H]3C[C@@H]3F)ncc2n1C [Compound 112, (1S,2S)-N-[2-(2-ethylpyridin-3-yl)-1-methylpyrrolo[2,3-c]pyridin-5-yl]-2-fluorocyclopropane-1-carboxamide]	1320 nM	564 nM		1780 nM	> 10000 nM
COc1cccc(OC)c1-c1cc2cc(NC(=O)NCCN3CCNCC3)ncc2n1C [Compound 81, 3-[2-(2,6-dimethoxyphenyl)-1-methylpyrrolo[2,3-c]pyridin-5-yl]-1-[2-(piperazin-1-yl)ethyl]urea]	17.2 nM	23.5 nM		40.4 nM	> 10000 nM
COc1ccnc(OC)c1-c1cc2cc(NC(=O)[C@H]3C[C@H]3F)ncc2n1C [Compound 97, (1R,2R)-N-[2-(2,4-dimethoxypyridin-3-yl)-1-methylpyrrolo[2,3-c]pyridin-5-yl]-2-fluorocyclopropane-1-carboxamide]	36.6 nM	76.4 nM		91.5 nM	3320 nM
CCc1ccnc(OC)c1-c1cc2cc(NC(=O)[C@@H]3C[C@@H]3F)ncc2n1C [Compound 142, (1S,2S)-N-[2-(4-ethyl-2-methoxypyridin-3-yl)-1-methylpyrrolo[2,3-c]pyridin-5-yl]-2-fluorocyclopropane-1-carboxamide]	18.6 nM	17.5 nM		59.3 nM	1690 nM
COc1ncnc(C)c1-c1cc2cc(NC(=O)[C@@H]3C[C@@H]3F)ncc2n1C [Compound 113, (1S,2S)-2-fluoro-N-[2-(4-methoxy-6-methylpyrimidin-5-yl)-1-methylpyrrolo[2,3-c]pyridin-5-yl]cyclopropane-1-carboxamide]	84.4 nM	366 nM		314 nM	> 10000 nM
CCOc1ncccc1-c1cc2cc(NC(=O)[C@@H]3C[C@@H]3F)ncc2n1C [Compound 36, (1S,2S)-N-[2-(2-ethoxypyridin-3-yl)-1-methylpyrrolo[2,3-c]pyridin-5-yl]-2-fluorocyclopropane-1-carboxamide]	6.33 nM	308 nM		105 nM	3630 nM
Cn1c(-c2cccc3[nH]cnc23)cc2cc(NC(=O)[C@@H]3C[C@@H]3F)ncc21 [Compound 73, (1S,2S)-N-[2-(1H-1,3-benzodiazol-4-yl)-1-methylpyrrolo[2,3-c]pyridin-5-yl]-2-fluorocyclopropane-1-carboxamide]	519 nM	315 nM		3710 nM	> 10000 nM
COc1ncnc(OC)c1-c1cc2cc(NC(=O)C3CC3)ncc2n1C [Compound 118, N-[2-(4,6-dimethoxypyrimidin-5-yl)-1-methylpyrrolo[2,3-c]pyridin-5-yl]cyclopropanecarboxamide]	35.3 nM	108 nM		71.4 nM	929 nM
Cc1c(O)cccc1-c1cc2cc(NC(=O)[C@@H]3C[C@@H]3F)ncc2n1C [Compound 24, (1S,2S)-2-fluoro-N-(2-(3-hydroxy-2-methylphenyl)-1-methyl-1H-pyrrolo[2,3-c]pyridin-5-yl)cyclopropane-1-carboxamide]	9.33 nM	8.34 nM		122 nM	794 nM
COc1nc(O)nc(OC)c1-c1cc2cc(NC(=O)[C@@H]3C[C@@H]3F)ncc2n1C [Compound 108, (1S,2S)-2-fluoro-N-(2-(2-hydroxy-4,6-dimethoxypyrimidin-5-yl)-1-methyl-1H-pyrrolo[2,3-c]pyridin-5-yl)cyclopropane-1-carboxamide]	6.32 nM	12.4 nM		736 nM	> 10000 nM
COc1ncc(C#N)cc1-c1cc2cc(NC(=O)[C@@H]3C[C@@H]3F)ncc2n1C [Compound 67, (1S,2S)-N-[2-(5-cyano-2-methoxypyridin-3-yl)-1-methylpyrrolo[2,3-c]pyridin-5-yl]-2-fluorocyclopropane-1-carboxamide]	126 nM	513 nM		207 nM	5280 nM
COc1ncnc(OC2CC2)c1-c1cc2cc(NC(=O)[C@@H]3C[C@@H]3F)ncc2n1C [Compound 85, (1S,2S)-N-[2-(4-cyclopropoxy-6-methoxypyrimidin-5-yl)-1-methylpyrrolo[2,3-c]pyridin-5-yl]-2-fluorocyclopropane-1-carboxamide]	4.33 nM	147 nM		16.5 nM	1710 nM
CCc1ncnc(OC)c1-c1cc2cc(NC(=O)[C@@H]3C[C@@H]3F)ncc2n1C [Compound 92, (1S,2S)-N-[2-(4-ethyl-6-methoxypyrimidin-5-yl)-1-methylpyrrolo[2,3-c]pyridin-5-yl]-2-fluorocyclopropane-1-carboxamide]	494 nM	1650 nM		227 nM	> 10000 nM
COc1ccccc1-c1c(C)c2cc(NC(=O)[C@@H]3C[C@@H]3F)ncc2n1C [Compound 43, (1S,2S)-2-fluoro-N-(2-(2-methoxyphenyl)-1,3-dimethyl-1H-pyrrolo[2,3-c]pyridin-5-yl)cyclopropane-1-carboxamide]	50.2 nM	24.7 nM		317 nM	> 10000 nM
COc1ncc(F)cc1-c1c(C)c2cnc(NC(=O)[C@@H]3C[C@@H]3F)cc2n1C [Compound 57, (1S,2S)-2-fluoro-N-(2-(5-fluoro-2-methoxypyridin-3-yl)-1,3-dimethyl-1H-pyrrolo[3,2-c]pyridin-6-yl)cyclopropane-1-carboxamide]	111 nM	83.7 nM		128 nM	4270 nM
COc1ccnc(C)c1-c1cc2cc(NC(=O)[C@@H]3C[C@@H]3F)ncc2n1C [Compound 86, (1S,2S)-2-fluoro-N-(2-(4-methoxy-2-methylpyridin-3-yl)-1-methyl-1H-pyrrolo[2,3-c]pyridin-5-yl)cyclopropane-1-carboxamide]	200 nM	2930 nM		700 nM	> 10000 nM
[2H]C([2H])([2H])n1c(-c2cc(F)cnc2OC)cc2cc(NC(=O)[C@@H]3C[C@@H]3F)ncc21 [Compound 65, (1S,2S)-2-fluoro-N-(2-(5-fluoro-2-methoxypyridin-3-yl)-1-(methyl-d3)-1H-pyrrolo[2,3-c]pyridin-5-yl)cyclopropane-1-carboxamide]	49.2 nM	47.6 nM		217 nM	> 10000 nM
COc1ncnc(OC)c1-c1cc2cc(NC(=O)[C@H]3C[C@@H]3CN3CCN(C)CC3)ncc2n1C (single isomer, unassigned) [Compound 124]	14.9 nM	56.7 nM		41.4 nM	> 10000 nM
[2H]C([2H])([2H])n1c(-c2cccnc2OC)cc2cc(NC(=O)[C@@H]3C[C@@H]3F)ncc21 [Compound 64, (1S,2S)-2-fluoro-N-(2-(2-methoxypyridin-3-yl)-1-(methyl-d3)-1H-pyrrolo[2,3-c]pyridin-5-yl)cyclopropane-1-carboxamide]	32.5 nM	47.8 nM		139 nM	1610 nM
COc1c(-c2cc3cc(NC(=O)[C@@H]4C[C@@H]4F)ncc3n2C)ccc2[nH]cnc12 [Compound 29, (1S,2S)-2-fluoro-N-[2-(4-methoxy-1H-1,3-benzodiazol-5-yl)-1-methylpyrrolo[2,3-c]pyridin-5-yl]cyclopropane-1-carboxamide]	52 nM	22.2 nM		258 nM	800 nM

From patent US12240846B2 (Enliven Inc., priority 2020, dated 2025)
